The source of these data is patent US10980755B2, “LRH-1 modulators” (THE REGENTS OF THE UNIVERSITY OF CALIFORNIA, priority 2015, dated 2021).

For one test, the target named is T1, hLRH-1 (Homo sapiens, UniProt O00482).
T1 construct: expressed in transfected cells; host or cells: TET-On 3G HepG2 cells; Dox-inducible pTRE 3G vector (Clontech)
The test is described as follows: RT-qPCR of hLRH-1 target gene CYP24A1 in HepG2 / HepG2-hLRH-1 cells. The format is cell-based.

Another test has as its system TBP. The test is described as follows: RT-qPCR of housekeeping gene TBP in HepG2-hLRH-1 cells. The format is cell-based, human. The note with it: high hLRH-1 (+Dox), 16 h, SR1848 10 μM. The procedure:
FIG. 9. Effects of select compounds targeting hLRH-1 compared to PME8. Agonists and antagonists were tested in HepG2-hLRH-1 cells expressing high levels (+Dox) of hLRH-1; activating compounds were added for 16 h relative to the DMSO control (black bars) at the following concentrations: RJW100 (10 μM), DLPC (20 μM), PME8 (10 μM) (bolded, this study) as well as the two putative antagonist/repressors, SR1848 (10 μM) and Cpd3 (10 μM); relative levels of the hLRH-1 target, CYP24A1 (left set of bars) and the housekeeping gene, TBP (right set of bars) are shown with all values normalized to GAPDH. Error bars represents SEM and P values=****<0.0001.
Finally, to ask how PME8 and PME9 compare to other published compounds, we directly compared the activity of all compounds with respect to the ability to activate or repress CYP24A1 expression in HepG2-hLRH-1 cells. For this experiment, assays were carried out under high levels of hLRH-1 (+Dox) to maximize our ability to see any repressive effects of compounds and the ligand concentrations used were based on published effective doses. […] Of the two published antagonist/repressors, only SR1848 decreased CYP24A1 levels. […]
For RT-qPCR assay, cells (5×10^5) were plated on 24-well plates in 0.5 mL of media. […] RT-qPCR was performed with SYBR (Biotool) and data analyzed essentially as described. […]

The target in another test is T2, F342W/I416W hLRH-1 (Homo sapiens, UniProt O00482, F342W/I416W).
T2 construct: expressed in transfected cells; host or cells: TET-On 3G HepG2 cells; Dox-inducible pTRE 3G vector (Clontech)
The test is described as follows: RT-qPCR of CYP24A1 in HepG2 cells stably expressing the hLRH-1 pocket mutant. The format is cell-based. The settings on record: 10 μM, 16 h, low levels of hLRH-1; listed as PME8.

The target in test [1] is biotinylated apo hLRH-1 LBD (Homo sapiens, UniProt O00482). The test is described as follows: Surface plasmon resonance binding assay. The settings on record: SPR, 25° C., titration from 300 μM, 1:1 binding model; listed as PME8.
Description: Surface Plasmon Resonance Assays. Data were collected on a BiaCore T100 instrument. The biotin CAPture kit (GE Healthcare Life Science) was used as directed for chip preparation and immobilization of protein. In brief, the CAP chip was first conditioned with 3×1 min injec-tions of the provided regeneration solution (6 M Guanidine HCL, 0.25 M NaOH). CAP reagent was then captured on flow cells 1 and 2 to a final density of ˜2500 response units using capture buffer (25 mM HEPES, pH 7.4, 150 mM NaCl). Avi-tagged LRH-1 was then directly injected exclusively on to flow cell 2 achieving a final density of ˜1000 response units (capture buffer). […] A titration series for each fragment was generated as a 0.6× dilution series starting from 300 μM. All samples were made to match the running buffer used in the experiment as closely as possible (capture buffer+3% DMSO, +0.05% Tween-20, 250 μM TCEP). Data was collected at 25° C. with a flow rate of 30 μL/min. Data processing included referencing to both the reference flow cell as well as a buffer injection. Equilibrium binding constants were determined by nonlinear regression analysis utilizing a simple 1:1 binding model. Steady state values used to generate dose-responses curve correspond to the response units achieved 20 seconds after injection.

SMILES strings stand for the structures. Entries after “also recorded” stand apart in the source; their conditions may differ.

T1 sequence (O00482 whole entry): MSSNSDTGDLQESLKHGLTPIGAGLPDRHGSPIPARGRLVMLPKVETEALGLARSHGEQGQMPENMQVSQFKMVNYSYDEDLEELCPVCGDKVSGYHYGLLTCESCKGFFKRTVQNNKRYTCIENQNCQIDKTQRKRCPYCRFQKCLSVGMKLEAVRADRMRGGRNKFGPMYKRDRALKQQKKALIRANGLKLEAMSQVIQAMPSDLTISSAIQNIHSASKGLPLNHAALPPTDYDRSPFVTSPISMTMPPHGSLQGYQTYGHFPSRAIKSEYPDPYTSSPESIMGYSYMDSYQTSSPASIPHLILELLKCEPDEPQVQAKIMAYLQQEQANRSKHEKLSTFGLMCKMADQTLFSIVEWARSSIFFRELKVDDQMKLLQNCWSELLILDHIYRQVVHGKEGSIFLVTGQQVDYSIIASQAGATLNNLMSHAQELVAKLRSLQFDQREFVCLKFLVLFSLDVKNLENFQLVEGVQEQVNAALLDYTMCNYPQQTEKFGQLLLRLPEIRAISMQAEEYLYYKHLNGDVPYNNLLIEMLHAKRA
T2 sequence (O00482 whole entry F342W/I416W): as the sequence (O00482 whole entry) above, with F342W, I416W counted along it
Chain of biotinylated apo hLRH-1 LBD (O00482 300-539 limits assumed): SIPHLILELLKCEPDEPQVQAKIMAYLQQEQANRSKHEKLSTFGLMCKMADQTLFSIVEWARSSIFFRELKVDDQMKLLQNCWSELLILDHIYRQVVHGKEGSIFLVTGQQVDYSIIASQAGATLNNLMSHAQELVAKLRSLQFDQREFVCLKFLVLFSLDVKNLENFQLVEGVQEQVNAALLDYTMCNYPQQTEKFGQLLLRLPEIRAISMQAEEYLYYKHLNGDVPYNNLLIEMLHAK
Description for F342W/I416W hLRH-1: Cell lines and Quantitative Real-time Polymerase Chain Reaction (RT-qPCR) Assay. […] Induction of low or high levels of hLRH-1 was achieved by addition of DMSO or 500 ng/ml Dox, respectively.
For RT-qPCR assay, cells (5×10^5) were plated on 24-well plates in 0.5 mL of media. The following day, fresh media was applied with compound or DMSO control. After an overnight treatment or indicated period of time, cells were washed with ice-cold 1×PBS and total RNA was isolated by Trizol (Life Technologies). DNase-treated total RNA was used to generate cDNA using High-Capacity cDNA Reverse Transcription kits (Life Technologies). RT-qPCR was performed with SYBR (Biotool) and data analyzed essentially as described [19].

`O=c1cc(N2CCN(c3cccc(Cl)c3)CC2)[nH]c(=O)n1C1CCCCC1` [SR1848, reference compound]: the “CYP24A1 expression, comparison of published compounds” value on hLRH-1 (high hLRH-1 (+Dox), 16 h, RJW100 10 μM, DLPC 20 μM, SR1848 10 μM) was “decreased”. In addition, the “expression of the housekeeping gene TBP” value in the test with TBP was “substantial repression”.

Turning to `CCCNC(=O)c1cc(C(C)(C)C)cc(C(C)(C)C)c1O` [Compound 8, 3,5-di-tert-butyl-2-hydroxy-N-propylbenzamide], the “CYP24A1 expression after siRNA-mediated knockdown of hLRH-1 (dependence on hLRH-1)” value on hLRH-1 (10 μM, siLRH-1 vs siControl, HepG2-hLRH-1 cells, low hLRH-1 (−Dox), listed as PME8) was “precipitous drop in CYP24A1 expression; also recorded: Depends on hLRH-1”. Besides, the “treatment time of maximal activity (CYP24A1 levels)” value on hLRH-1 (HepG2-hLRH-1 cells) was found to be 16 h. In addition, the “time and dose dependence of CYP24A1 induction” value at hLRH-1 (HepG2-hLRH-1 cells, 3-24 h at 10 μM, increasing concentrations for 16 h, −Dox or +Dox, listed as PME8) is “time-dependent (FIG. 7A) and dose-dependent”. At F342W/I416W hLRH-1, the “activity (CYP24A1 transcripts) in cells expressing the pocket mutant versus wild type hLRH-1” value is recorded as “decreased; also recorded: depends on an intact hLRH-1 ligand binding pocket”. In addition, the “binding to the hLRH-1 LBD” value in test [1] is reported as “direct binding; also recorded: bind directly”.
